Reference: patent US7033829B2, “Method to inhibit cell growth using oligonucleotides” (Trustees of Boston University, priority 2000, dated 2006)
Oligonucleotides are written 5' to 3', each unit as a sugar letter and its base; * is a phosphorothioate linkage, no mark a phosphodiester; rarer units and linkages stand in square brackets, end groups in braces. Plain capitals give the bases only. d = 2'-deoxy (DNA); {P} = phosphate

Experiments:
Jurkat cells = assay: FACS cell cycle / apoptosis analysis of Jurkat cells; assay type: cell-based, human; conditions: for apoptosis in human T cells: summary of Example 13; for cell cycle profile: 0.4 μM; for cells accumulated in the S-phase: 5 μM, within 72 hours (diluent 36%)
Procedure: Oligonucleotides homologous to the telomere overhang repeat sequence (TTAGGG; SEQ ID NO:11), sequence (11mer-1: pGTTAGGGTTAG; SEQ ID NO: 5), complementary to this sequence (11mer-2: pCTAACCCTAAC; SEQ ID NO: 9) and unrelated to the telomere sequence (11mer-3: pGATCGATCGAT; SEQ ID NO: 10) were added to cultures of Jurkat cells, a line of human T cells, one of the cell types reported to undergo apoptosis in response to telomere disruption. Within 48 hours, 50% of the cells treated with 40 μM of SEQ ID NO: 5 had accumulated in the S phase, compared to 25–30% for control cells (p<0.0003, non-paired t-test; see FIGS. 19A–19D), and by 72 hours, 13% of these cells were apoptotic as determined by a sub-G0/G1 DNA content, compared to 2–3% of controls (p<0.007, non-paired t-test; see FIGS. 19E–19H). At 96 hours, 20±3% of the 11mer-1 treated cells were apoptotic compared with 3–5% of controls (p<0.0001, non-paired t-test). To exclude preferential uptake of the 11mer-1 as an explanation of its singular effects, Jurkat cells were treated with oligonucleotides labeled on the 3′ end with fluorescein phosphoramidite, then subjected to confocal microscopy and FACS analysis. The fluorescence intensity of the cells was the same after all treatments at 4 hours and 24 hours.
Three DNA oligonucleotides were designed initially: one homologous to the telomere overhang (11mer-1: pGTTAGGGTTAG; SEQ ID NO:5), one complementary to this sequence (11mer-2: pCTAACCCTAAC; SEQ ID NO:9) and one unrelated (11mer-3: pGATCGATCGAT; SEQ ID NO:10). For later experiments, additional 11 base oligonucleotides were designed: one a simple permutation of 11mer-1 (pGGGTTAGGGTT; SEQ ID NO:13), one with the same number of G residues but roughly 50% rather than 100% homology to the overhang (pTAGATGTGGTG; SEQ ID NO:14), and one with roughly 50% overhang homology but also containing cytosine bases (pCGGGCTTATTG; SEQ ID NO:15) (Midland Certified Reagent Company, Midland, Tex.). Cell Sources and Culture Human neonatal fibroblasts were established and cultured as previously described (Eller, M. S., et al., 1997, Proc Natl Acad Sci USA 94: 12627–12632). Fibroblasts from a Nijmegen breakage syndrome (NBS) patient (#GM07166) and an age-matched control (GM03399) were purchased from the NIGMS Human Cell Repository, Coriell Institute for Medical Research, Camden, N.J.) and cultured in DMEM/15% FBS. Saos-2 cells were purchased from the American Type Culture Collection (ATCC; Manassas, Va.). SCC12F cells were the kind gift of Dr. James Rheinwald, Harvard University. Cell Cycle Analysis The established line of human T lymphocytes, termed Jurkat cells (180,000 cells/ml) were plated in RPMI medium 1640 supplemented with 3% FBS (both from GIBCO/BRL, Gaithersburg, Md.). […] Cells were collected up to 96 hours after treatment, stained with propidium iodide and analyzed by FACS using a Becton-Dickinson FacsScan and CellQuest software. Caspase Activity
Oligonucleotides homologous to the 3′ overhang sequence (11mer-1: pGTTAGGGTTAG; SEQ ID NO:5), complementary to this sequence (11mer-2: pCTAACCCTAAC; SEQ ID NO:9) and unrelated to the telomere sequence (11mer-3: pGATCGATCGAT; SEQ ID NO:10) were synthesized. The three 11mer oligonucleotides were added to cultures of Jurkat cells, an established line of human T lymphocytes, a cell type reported to undergo apoptosis in response to telomere disruption [Karlseder, J., et al, (1999) Science 283, 1321–1325] and DNA damaging ionizing radiation (IR) [Vigorito, E., et al, (1999), Hematol Cell Ther 41, 153–161]. Duplicate cultures of Jurkat cells were treated with a final concentration of 40 μM 11mer-1, -2 or -3, oligonucleotides, or an equal volume of diluent (water) as a control. Cells were collected up to 96 hours after treatment, stained with propidium iodideandanalyzed by FACS. See also Example 13 and FIGS. 19A–19H.
To further confirm the specificity of these responses to the telomere overhang sequence, three variations were tested. […]

MM-AN cells [1] = assay: Tumorigenicity of pretreated MM-AN cells in SCID mice; assay type: in vivo; conditions: cells pretreated 40 μM 48 hours; day 18 (diluent 322±45)
Procedure: To study the effect of T-oligo on the tumorigenicity of MM-AN cells, cells were grown in DMEM with 5% fetal bovine serum (FBS) and treated with 40 μM of T-oligo, complement, or diluent alone for 48 hours. The cells were then harvested with trypsin/EDTA and the percent viability determined by trypan blue exclusion. […] The tumorigenicity of these melanoma cells was determined by injecting 1×10^6 viable cells in balanced salt solution subcutaneously over the right scapular region of SCID mice (3 groups of 5 mice) to produce tumors. The animals were sacrificed by CO2 inhalation 18 days after treatment and the tumor size evaluated with calipers. Tumors were processed for hematoxylin and eosin staining and the melanocytic origin of the tumors was confirmed by immunohistochemical staining of the lesion using HMB-45 monoclonal antibody, which recognizes gp-100, a conventional marker for human melanoma.

MM-AN cells [2] = assay: Metastatic potential of pretreated MM-AN cells in SCID mice; assay type: in vivo; conditions: for animals that developed multiple metastases: 5 mice per group, 40 days; for METASTASIS FREE: animals of 5; for Total Tumor Load (5 animals): mouse, in vivo; for Average tumors per animal: visible tumors, 40 days (diluent 15.8)
Procedure: To study the effect of T-oligo on the metastatic potential of melanoma cells, cultures of MM-AN cells were treated for 48 hours with T-oligo, complement or diluent alone and harvested as described above. 1×10^6 cells in balanced salt solution were injected into the lateral tail vein of 5-week old SCID mice (3 groups of 5 mice). After 40 days, mice were sacrificed by CO2 inhalation, an autopsy performed and organs examined macroscopically for visible metastatic lesions.

Substance: pGATCGATCGAT (DNA {P}-dGdAdTdCdGdAdTdCdGdAdT) [SEQ ID NO: 10, reference compound]
- apoptosis in human T cells (Jurkat cells): did not significantly increase apoptosis

Substance: 11mer-1-S: phosphorothioate 11mer-1 (dG*dT*dT*dA*dG*dG*dG*dT*dT*dA*dG; further chemistry not fully specified)
- cell cycle profile (Jurkat cells; 96 hours): neither of the oligonucleotides affected
- apoptosis (sub-G0/G1 peak) (Jurkat cells; 40 μM, 96 hours): had no effect

Substance: pGTTAGGGTTAG (DNA {P}-dGdTdTdAdGdGdGdTdTdAdG) [SEQ ID NO: 5]
- Mean tumor volume (MM-AN cells [1]): 56±13 mm^3
- animals that developed multiple metastases (MM-AN cells [2]): one of five animals
- Animals with tumors (MM-AN cells [2]; Site: Adrenal): 1/5
- Total tumors (MM-AN cells [2]; Site: Adrenal): 2
- Animals with tumors (MM-AN cells [2]; Site: Bone): 0/5
- Total tumors (MM-AN cells [2]; Site: Bone): 0
- Animals with tumors (MM-AN cells [2]; Site: Brain): 1/5
- Total tumors (MM-AN cells [2]; Site: Brain): 2
- Animals with tumors (MM-AN cells [2]; Site: Brown fat): 0/5
- Total tumors (MM-AN cells [2]; Site: Brown fat): 0
- Animals with tumors (MM-AN cells [2]; Site: Kidney): 0/5
- Total tumors (MM-AN cells [2]; Site: Kidney): 0
- Animals with tumors (MM-AN cells [2]; Site: Liver): 0/5
- Total tumors (MM-AN cells [2]; Site: Liver): 0
- Animals with tumors (MM-AN cells [2]; Site: Lung): 0/5
- Total tumors (MM-AN cells [2]; Site: Lung): 0
- Animals with tumors (MM-AN cells [2]; Site: Miscellaneous): 0/5
- Total tumors (MM-AN cells [2]; Site: Miscellaneous): 0
- Animals with tumors (MM-AN cells [2]; Site: Pancreas): 0/5
- Total tumors (MM-AN cells [2]; Site: Pancreas): 0
- METASTASIS FREE (MM-AN cells [2]): 4/5
- reduction of average volume of macroscopic metastatic tumors (MM-AN cells [2]; compared to complement treated animals): ~80%
- reduction of average volume of macroscopic metastatic tumors (MM-AN cells [2]; compared to diluent treated animals): about 85%
- Total Tumor Load (5 animals) (MM-AN cells [2]): 4
- Average tumors per animal (MM-AN cells [2]): 0.8
- cell cycle profile (Jurkat cells; 96 hours): neither of the oligonucleotides affected
- cells accumulated in the S-phase (Jurkat cells): 61%
- treated cells in the S-phase (Jurkat cells; 20 μM, 72 hours): 58±1%
- apoptotic cells (sub-G0/G1 DNA content) (Jurkat cells; 40 μM, 72 hours): 13%
- cells in S phase (Jurkat cells; 40 μM, 72 hours): 38%
- apoptosis (sub-G0/G1 peak) (Jurkat cells; 40 μM, 96 hours): induced extensive apoptosis
- apoptotic cells (Jurkat cells; 40 μM, 96 hours): 20±3%
- cells accumulated in the S phase (Jurkat cells; 40 μM, within 48 hours): 50%
- activity of the two complete telomere overhang homologs (Jurkat cells; separate paired cultures): equal in activity
- apoptosis in human T cells (Jurkat cells): induced human T cells to undergo apoptosis

Substance: pCTAACCCTAAC (DNA, 5' {P}, backbone not given here) [SEQ ID NO: 9, reference compound]
- Mean tumor volume (MM-AN cells [1]): 238±50 mm^3
- animals that developed multiple metastases (MM-AN cells [2]): All five animals
- Animals with tumors (MM-AN cells [2]; Site: Adrenal): 2/5
- Total tumors (MM-AN cells [2]; Site: Adrenal): 3
- Animals with tumors (MM-AN cells [2]; Site: Bone): 1/5
- Total tumors (MM-AN cells [2]; Site: Bone): 3
- Animals with tumors (MM-AN cells [2]; Site: Brain): 3/5
- Total tumors (MM-AN cells [2]; Site: Brain): 3
- Animals with tumors (MM-AN cells [2]; Site: Brown fat): 3/5
- Total tumors (MM-AN cells [2]; Site: Brown fat): 8
- Animals with tumors (MM-AN cells [2]; Site: Kidney): 4/5
- Total tumors (MM-AN cells [2]; Site: Kidney): 7
- Animals with tumors (MM-AN cells [2]; Site: Liver): 2/5
- Total tumors (MM-AN cells [2]; Site: Liver): 4
- Animals with tumors (MM-AN cells [2]; Site: Lung): 3/5
- Total tumors (MM-AN cells [2]; Site: Lung): 6
- Animals with tumors (MM-AN cells [2]; Site: Miscellaneous): 1/5
- Total tumors (MM-AN cells [2]; Site: Miscellaneous): 7
- Animals with tumors (MM-AN cells [2]; Site: Pancreas): 4/5
- Total tumors (MM-AN cells [2]; Site: Pancreas): 7
- METASTASIS FREE (MM-AN cells [2]): 0/5
- Total Tumor Load (5 animals) (MM-AN cells [2]): 48
- Average tumors per animal (MM-AN cells [2]): 9.6
- apoptosis in human T cells (Jurkat cells): did not significantly increase apoptosis

Substance: thymidine dinucleotide [pTpT]
- higher concentration needed to duplicate the 11mer-1 effect on cell cycle arrest (Jurkat cells): 4 fold
- cells accumulated in the S-phase (Jurkat cells): 45%
- treated cells in the S-phase (Jurkat cells; 20 μM, 72 hours): 53±1%
- apoptosis (Jurkat cells; 20 μM, even at 96 hours): No apoptosis was detected
